Laboratory results reported in US12454678B2, “Muscle differentiation-promoting actions of ergothioneine, ascorbic acid 2-glucoside, ascorbic acid, and combination thereof” (NAGASE & CO., LTD., priority 2018, dated 2025).

Assays:
Type in all cases: cell-based
C2C12 cells = experiment: Microscopic observation of muscle differentiation of C2C12 cells in differentiation medium; conditions: 0.5 mM EGT in differentiation medium, sixth day, vs control without EGT
Method: C2C12 cells were suspended in a 10% fetal calf serum-containing Dulbecco's modified Eagle's medium (hereinafter, called a growth medium) to adjust the cell density to 65×10^4 cells/ml. Then, 1.5 ml of the cell suspension was added to each well of a 6-well plate, and the cells were cultured in a 5% CO2 incubator for 24 hours. The growth medium was removed, and 2 ml of 2% horse serum-containing Dulbecco's modified Eagle's medium containing 0.5 mM EGT (hereinafter, called a differentiation medium) was then added to each well. The differentiation medium was exchanged for a new culture medium every other day, and the culture was continued. A control group was subjected to the exactly same operation except that EGT was not contained. The forms of the cells were observed and photographed through a microscope (NIKON CORPORATION: Eclipse Ts2) on the sixth day after exchange for the differentiation medium.

[1] = tested on: MyoD mRNA expression in C2C12 cells; experiment: MyoD mRNA expression level of C2C12 cells (real time PCR, corrected by PPIA); conditions: 0.1 mM or 0.5 mM EGT, after 2 days
Method: C2C12 cells were suspended in a growth medium to adjust the cell density to 65×10^4 cells/ml. Then, 1.5 ml of the cell suspension was added to each well of a 6-well plate, and the cells were cultured in a 5% CO2 incubator for 24 hours. The growth medium was removed, and 2 ml of a differentiation medium containing 0.1 mM or 0.5 mM EGT was then added to each well. A control group (hereinafter abbreviated to NT) was subjected to the exactly same operation except that EGT was not contained. The culture medium was removed after 2 days, 1 ml of TRIzol (Invitrogen Corporation) was added to each well, and the cells were dissolved. The cell solution was collected in an Eppendorf tube, and RNA was collected according to the protocol of TRIzol. The complementary strand DNA of the mRNA was obtained by treating the collected RNA with a reverse transcription kit (Takara Bio Inc.). The following primer DNAs (MyoD [NM_010866]: forward 5[…]3′ (SEQ ID NO: 1), reverse 5′[…]3′ (SEQ ID NO: 2), PPIA [NM_008907]: forward 5′[…]3′ (SEQ ID NO: 3), and reverse 5′[…]3′ (SEQ ID NO: 4)) were added to the obtained complementary strand DNA, and the gene expression levels of MyoD and PPIA were measured by subjecting the mixture to a CFX96 Touch™ real time PCR analysis system (Bio-Rad Laboratories, Inc.) using TB Green™ Premix Ex Taq™ II (Takara Bio Inc.) according to the protocol thereof. […]

[2] = tested on: MyH2 mRNA expression in C2C12 cells; experiment: MyH2 mRNA expression level of C2C12 cells (real time PCR, corrected by PPIA); conditions: for MyH2 mRNA expression: procedure of Example 3, vs NT
Method: (§1) C2C12 cells were suspended in a growth medium to adjust the cell density to 65×10^4 cells/ml. Then, 1.5 ml of the cell suspension was added to each well of a 6-well plate, and the cells were cultured in a 5% CO2 incubator for 24 hours. The growth medium was removed, and 2 ml of a differentiation medium containing 0.5 mM EGT was added. A control group (NT) was subjected to the exactly same operation except that EGT was not contained. The culture medium was removed after 2 days, 1 ml of TRIzol (Invitrogen Corporation) was added to each well, and RNA was collected according to the protocol of TRIzol. The collected RNA was converted into complementary strand DNA with a reverse transcription kit (Takara Bio Inc.). The following primer DNAs (MyH2 [NM_001039545]: forward 5′[…]3′ (SEQ ID NO: 5), reverse 5′[…]3′ (SEQ ID NO: 6), ACTA1 [NM_001272041]: forward 5′[…]3′ (SEQ ID NO: 7), PPIA [NM_008907]: forward 5′[…]3′ (SEQ ID NO: 3), and reverse 5′[…]3′ (SEQ ID NO: 4)) were added to the obtained complementary strand DNA, and the gene expression levels of MyH2, ACTA1, and PPIA were measured by subjecting the mixture to a CFX96 Touch™ real time PCR analysis system (Bio-Rad Laboratories, Inc.) using TB Green™ Premix Ex Tag™ II (Takara Bio Inc.) according to the protocol thereof. Correction was performed by dividing the amounts of expressed MyH2 and ACTA1 mRNA by the amount of expressed PPIA mRNA to calculate the myosin heavy chain 2 (MyH2) and a actin (ACTA1) mRNA expression levels. […] The MyH2 mRNA and ACTA1 mRNA expression levels increased by adding EGT.
C2C12 cells were suspended in a growth medium to adjust the cell density to 65×10^4 cells/ml. Then, 1.5 ml of the cell suspension was added to each well of a 6-well plate, and the cells were cultured in a 5% CO2 incubator for 24 hours. The growth medium was removed, and 2 ml of a differentiation medium containing 0.5 mM EGT, 25 μM edaravone (hereinafter, abbreviated to Edv), or 50 μM Edv was added to each well. Edv is a powerful synthetic antioxidant. The culture medium was exchanged for a new culture medium every other day, and the culture was continued. A control group (NT) was subjected to the exactly same operation except that EGT was not contained. The culture medium was removed after 4 days, 1 ml of TRIzol (Invitrogen Corporation) was added to each well, and RNA was collected according to the protocol of TRIzol. The complementary strand DNA of the mRNA was obtained by treating the collected RNA with a reverse transcription kit (Takara Bio Inc.). The following primer DNAs (MyH2 [NM_001039545]: forward 5′[…]3′ (SEQ ID NO: 5), reverse 5′[…]3′ (SEQ ID NO: 6), PPIA [NM_008907]: forward 5′[…]3′ (SEQ ID NO: 3), and reverse 5′[…]3′ (SEQ ID NO: 4)) were added to the obtained complementary strand DNA, and the gene expression levels of MyH2 and PPIA were measured by subjecting the mixture to a CFX96 Touch™ real time PCR analysis system (Bio-Rad Laboratories, Inc.) using TB Green™ Premix Ex Tag™ II Kit (Takara Bio Inc.) according to the protocol thereof. Correction was performed by dividing the amount of expressed MyH2 mRNA by the amount of expressed PPIA mRNA to calculate the MyH2 mRNA expression level.
(§2) The amounts of MyH2 and ACTA1 mRNA expression of C2C12 cells when the differentiation medium containing only EGT was used, when the differentiation medium containing EGT and AG was used, and when the differentiation medium containing only AG was used were investigated. AA2G(R) produced by Hayashibara Co., Ltd. was used as AG. […]

[3] = tested on: ACTA1 mRNA expression in C2C12 cells; experiment: ACTA1 mRNA expression level of C2C12 cells (real time PCR, corrected by PPIA); conditions: for ACTA1 mRNA expression: procedure of Example 3, vs NT
Method: as §1
as §2, with “AG. The concentration of EGT in the differentiation medium was 0.5 mM, and the concentration of AG was 1.0 mM. The experiment procedure was the same as that of Example 3.” for “AG.”

Compound: C[N+](C)(C)[C@@H](Cc1c[nH]c(=S)[nH]1)C(=O)[O-] [EGT, Ergothioneine]
- differentiation from C2C12 cells to muscle cells / myotube cell formation (C2C12 cells): more myotube cells were formed
- MyoD mRNA expression level (relative to NT = 1) [1]: increased depending on the concentration of EGT
- MyH2 mRNA expression level (relative to NT = 1) ([2]; 0.5 mM EGT, after 2 days): increased
- ACTA1 mRNA expression level (relative to NT = 1) ([3]; 0.5 mM EGT, after 2 days): increased

Compound: O=C1O[C@H]([C@@H](O)CO)C(O)=C1O[C@H]1O[C@H](CO)[C@@H](O)[C@H](O)[C@H]1O [AG, ascorbic acid 2-glucoside]
- MyH2 mRNA expression ([2]; only AG, 1.0 mM): increased
- ACTA1 mRNA expression ([3]; only AG, 1.0 mM): increased

Compound: O=C1O[C@H]([C@@H](O)CO)C(O)=C1O [VC, ascorbic acid]
- MyH2 mRNA expression ([2]; only VC, 0.5 mM): increased
- ACTA1 mRNA expression ([3]; only VC, 0.5 mM): increased

Compound: CC1=NN(c2ccccc2)C(=O)C1 [Edv, edaravone, reference compound]
- MyH2 mRNA expression level (relative to NT = 1) ([2]; 25 μM or 50 μM Edv, after 4 days): did not affect
- MyH2 mRNA expression level (relative to NT = 1) ([2]; 25 μM or 50 μM Edv, after 4 days, listed as edaravone): does not influence
